“Also recorded” adds a separate entry of the source. No end group written: not given here.
Legend:
[1] = molecular target: Orai1 (Homo sapiens, UniProt Q96D31); assay: Dose response of Ca^2+ influx (SOCE), Ca^2+ add back approach, HEK293T cells; format: cell-based; design: Endogenous Orai1/store operated Ca^2+ influx have been extensively studied in HEK293T cells; endogenous in cells; host or cells: HEK293T
Method: HEK293T cells were cultured in 384 well plates. Cells were then exposed to vehicle or […] ELD607 for 1 h. 100 nM thapsigargin was then added followed by extracellular Ca^2+ to differentiate ER Ca^2+ release and SOCE. n=8-12 cultures per data point.
ELD607 requires Orai1 expression to inhibit Ca^2+ signaling. […] Using this approach, curves were fitted to the data and the 50% inhibitory concentrations (IC50S) were calculated.

[2] = tested on: NFAT; assay: NFAT-GFP relocation to the nucleus in HEK293T cells after stimulation of SOCE; format: cell-based; conditions: thapsigargin
Text: To determine whether ELD607 internalized Orai1, total internal reflection fluorescence (TIRF) microscopy was used to measure Orai1 in the plasma membrane. […] However, ELD607 reduced Orai1 plasma membrane expression by ˜50% (FIG. 26, panels A-B). […] We expressed NFAT-GFP in HEK293T cells and evaluated the ability of ELD607 to attenuate NFAT relocation to the nucleus after stimulation of SOCE by confocal microscopy. ELD607 reduced the percentage of NFAT in the nucleus by greater than 50% (FIG. 26, panels C-D).

[3] = tested on: immune cells from tracheal aspirates of ARDS/bacterial pneumonia patients; assay: Thapsigargin-induced cytosolic Ca^2+ in immune cells from ARDS/bacterial pneumonia patients; format: cell-based, human; conditions: Fluo-4, 1 h exposure
Method: We next obtained tracheal aspirates from intubated ARDS/bacterial pneumonia patients. We immediately isolated immune cells from these samples and simultaneously loaded them with the Ca^2+ dye Fluo-4 and exposed them to vehicle, ELD607 or scrambled peptide for 1 h.

[4] = tested on: P. aeruginosa; assay: P. aeruginosa growth in the presence of peptide; format: cell-based; conditions: in vitro
[5] = tested on: P. aeruginosa; assay: Murine model of P. aeruginosa bacterial pneumonia; format: in vivo, mice
Method: FIGS. 15A-15D show (FIG. 15A) a schematic of a murine model of P. aeruginosa (top left panel), and bar graphs of (FIG. 15B) BAL monocytes, (FIG. 15C) BAL neutrophils, and (FIG. 15D) bacterial counts in whole lung at 24 hours quantified following experiments according to the mouse model as schematized and conditions as noted on the x-axis.
FIGS. 16A-16G show data from further P. aeruginosa infection experiments. […] Increased inflammation is seen in infection as indicated in the alveolar/gas exchange regions of the lungs which show alveolar damage and thickening that prevent gas exchange. ELD607 treatment normalized alveoli histology similar to naïve lung conditions.
Mice were exposed to vehicle or P. aeruginosa±ELD607 and BAL was obtained and stained with an anti-Orai1 antibody, fluorescent 2° and DAPI. […] FIG. 16G panels B and C show plots showing fluorescence intensities of Orai1 in macrophages and neutrophils, respectively. ***p<0.001 different as indicated. ND=no detectable neutrophils in these groups.
Further in vivo experiments were performed. […] Bronchoalveolar lavage (BAL) and organ collection was performed 24 hours following treatment with peptide (FIG. 15A). […] Moreover, 24 h after infection, about 10^9 CFUs could be detected in murine whole lung homogenate. However, ELD607 caused an ˜5 log10 reduction in lung bacteria (FIG. 15D).
Mice were exposed to vehicle or P. aeruginosa±ELD607 and BAL was obtained and stained with an anti-Orai1 antibody, fluorescent 2° and DAPI. […] FIG. 16G panels B and C show plots showing fluorescent intensities of Orai1 in macrophages and neutrophils, respectively.
To examine Orai1 levels, BAL was then obtained from P. aeruginosa-infected mice, immediately cytospun, fixed in PFA and stained with an antibody against Orai1.

[6] = tested on: mouse hepatitis virus (MHV-A59; a murine coronavirus); assay: Murine coronavirus MHV-A59 infection; format: in vivo
Method: Mice were dosed intranasally with 10^6 PFU MHIV-A59 followed by vehicle (saline) or 1.0 mg/kg of ELD607 per mouse 4 d p.i. BAL and lungs were collected 6 d p.i.
ELD607 normalized leukocyte composition and viral loads in the airways after murine coronavirus infection. Coronaviruses are emerging pathogens with severe outcomes in the human population. Mice were infected with 10^6 PFU mouse hepatitis virus (MHV-A59; a murine coronavirus) intranasally. The mice were then dosed with 1.0 mg/kg ELD607 or vehicle intranasally 4 days p.i. and then 2 days after dosing with ELD607 (6 days p.i.), mice were sacrificed to collect BAL and lung homogenates.

[7] = tested on: SARS-CoV-2 S1 pseudovirus; format: cell-based
[8] = tested on: P. aeruginosa POA1; assay: P. aeruginosa infection in Orai1 heterozygous mice and WT littermates; format: in vivo; conditions: 10^7 CFU/mouse, 0.5 mg/kg intranasal
Text: ELD607, but not global Orai1 inhibition or steroids beneficially reduce pulmonary inflammation after P. aeruginosa infection.

[9] = molecular target: T1, Orai1 extracellular peptide 1 (OP1) (Homo sapiens, UniProt Q96D31); assay: Dynamic light scattering binding to Orai1 extracellular loop peptide OP1; conditions: DLS, Orai1 amino acids 106-119
T1 construct: corresponding to amino acids 106-119 ([…]
Text: Endogenous Orai1/store operated Ca^2+ influx have been extensively studied in HEK293T cells, so this cell type was used to understand ELD607-Orai1 interactions. […] Thapsigargin is a SERCA pump inhibitor that prevents uptake of cytosolic Ca^2+ into the endoplasmic reticulum. Thapsigargin is commonly used to stimulate Orai1/store operated Ca^2+ influx. […] Dynamic light scattering (DLS) was used to evaluate binding of ELD607 to peptides of Orai1 extracellular loops. […] Thus, it was concluded that ELD607 interacts with Orai1.

[10] = 10^7 CFU, 0.51 mg/kg intranasal
[11] = 1.0 mg/kg intranasal 4 days p.i., read 6 days p.i.

Sequence of Orai1 (Q96D31 whole entry): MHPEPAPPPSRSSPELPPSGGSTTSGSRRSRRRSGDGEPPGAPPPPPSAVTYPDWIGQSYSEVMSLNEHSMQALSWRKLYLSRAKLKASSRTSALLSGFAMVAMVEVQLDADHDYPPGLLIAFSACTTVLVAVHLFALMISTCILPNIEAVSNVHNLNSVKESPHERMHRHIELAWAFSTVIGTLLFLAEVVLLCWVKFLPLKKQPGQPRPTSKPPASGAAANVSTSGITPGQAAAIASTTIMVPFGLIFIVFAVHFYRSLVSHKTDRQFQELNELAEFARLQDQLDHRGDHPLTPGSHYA

Sequence: VHDIVNMLIRG [ELD607, VHDIVNMLIRG]
- IC50 ([1]; Ca^2+ influx, HEK293T, 100 nM thapsigargin, read-out: IC50 (Molar)): 81 nM
- Bottom (%) ([1]; fitted curve bottom, text: maximal inhibitions): 37.76%
- reduction of the percentage of NFAT in the nucleus [2]: greater than 50%
- thapsigargin elevation of cytosolic Ca^2+ [3]: not after exposure to ELD607
- P. aeruginosa growth [4]: no effect on P. aeruginosa growth
- BAL monocytes ([5]; 10^7 CFU intratracheally, 0.51 mg/kg peptide intranasal 1 hour later, 24 hours): significantly retained monocyte levels
- BAL lactate dehydrogenase (LDH) [5, 10]: significantly reduced
- BAL neutrophil elastase [5, 10]: significantly reduced
- BAL total protein [5, 10]: significantly reduced
- BAL neutrophils ([5]; 10^7 CFU, 0.51 mg/kg intranasal, 24 hours): reduced neutrophil levels
- survival ([5]; 10^9 CFU/ml P. aeruginosa, 48 hours post-infection): significantly improved survival
- bacterial counts in the spleen ([5]; 24 hours post ELD607 treatment): reduced bacterial counts in the spleen
- BAL neutrophils, delayed treatment ([5]; ELD607 added 24 hours after infection): reduced
- BAL Macrophage Inflammatory Protein 2 (MIP-2) ([5]; P. aeruginosa infected mice): reduced
- BAL interleukin-17 (IL-17) ([5]; P. aeruginosa infected mice): reduced
- BAL keratinocytes-derived chemokine (KC) ([5]; P. aeruginosa infected mice): reduced
- IL-6 ([5]; P. aeruginosa infected mice): reduced
- interleukin-1β (IL-1β) ([5]; P. aeruginosa infected mice): reduced
- lung histology ([5]; P. aeruginosa infected mice): normalization of alveoli
- tumor necrosis factor-α (TNF-α) ([5]; P. aeruginosa infected mice): reduced
- weight loss ([5]; intranasal 10^7 CFU/ml P. aeruginosa, 24 hours): prevented the total weight loss
- Orai1 levels in BAL cells (anti-Orai1 staining) ([5]; naïve and P. aeruginosa-infected mice): reduces Orai1 in murine BAL macrophages; also recorded: significant decrease in Orai1 levels
- reduction in lung bacteria ([5]; whole lung homogenate, 24 h after infection): ~5 log10
- lung lymphocyte levels (B cells and T cells) [6, 11]: significantly reduced lung lymphocyte levels
- lung monocyte and macrophage levels [6, 11]: normalized lung monocyte and macrophage levels
- viral loads in the lungs and BAL ([6]; one dose 1.0 mg/kg): significantly reduced
- pseudovirus infection (% DsRed-positive cells) [7]: significantly reduced infection
- leukocyte levels in WT littermate controls [8]: normalized leukocytes similar to naïve mice
- interaction with OP1 (Z-average increase) [9]: significant interactions

Reference: patent US20250114430A1, “MODIFIED PEPTIDOMIMETICS AND METHODS OF USE” (The University of North Carolina at Chapel Hill, priority 2021, published 2025)
